According to patent US20190254992A1, “COMBINATIONS OF BETA-GLYCOLIPIDES AND 4-[(2-AMINO-3,5-DIBROMOPHENYL)METHYLAMINO]CYCLOHEXAN-1-OL, COMPOSITIONS AND USES THEREOF IN THE TREATMENT OF DISORDERS ASSOCIATED WITH PROTEIN MISFOLDING AND PROTEIN AGGREGATIONS” (HADASIT MEDICAL RESEARCH SERVICES & DEVELOPMENT LIMITED, priority 2016, published 2019):

Columns and labels:
glucosylceramidase = settings: fibroblasts from healthy controls, Gaucher patients, heterozygous GBA mutation with and without Parkinson's disease; cited from earlier work
type 3 neuropathic GD = settings: high doses, cited from earlier work
[1] = test system: serum cytokines (IL-1α, IL-4, IFN-γ, IL-6); assay: Serum cytokine measurement (MILLIPLEX/Luminex) in ConA immune-mediated hepatitis mice; assay type: in vivo, C57Bl/6 mice; settings: oral, daily for 5 days, ConA-injected mice; for serum IL-1a: control group A 206.5; for serum IL-6: control group A 11768
Method: Male C57Bl/6 mice (12 weeks old) were obtained from Harlan Laboratories (Jerusalem, Israel) and maintained in the Animal Core of the Hadassah-Hebrew University Medical School. Mice were kept at 11-12 weeks of age and maintained in the Animal Core of the Hadassah-Hebrew University Medical School. All mice were administered standard laboratory chow and water ad libitum and kept in a 12-hour light/dark cycle. All experiments were performed in accordance with the guidelines of the Hebrew University-Hadassah Institutional Committee for Care and Use of Laboratory Animals (IACUC protocol number: MD-16-14986-3).
Four groups of mice (n=4) were studied. Mice in all groups were injected with Concanavalin A (Con A, […]). Mice in control group A were treated with PBS. Mice in group B were orally administered 6 mg of GC, per mouse daily for 5 days prior to ConA injection.
Cytokine assessment was performed by MILLIPLEX® Analytes (EMD Millipore Corporation, Missouri 63304 U.S.A.) based on the Luminex xMAP® technology for performing immunoassays on the surface of fluorescent-coded magnetic beads MagPlex®-C microspheres. Acquiring and analyzing the data were performed using the Luminex analyzer (MAGPIX®) software. Cytokines assessment was measured by mean fluorescence intensity (MFI).

[2] = test system: non-neuronopathic form of GD; settings: patients with non-neuronopathic GD; cited from earlier work
alpha-synuclein = settings: neuroblastoma line engineered to overexpress alpha-synuclein; cited from earlier work
[3] = test system: immune-mediated liver injury; assay: Serum liver enzymes (ALT, AST) in ConA immune-mediated hepatitis mice; assay type: in vivo, C57Bl/6 mice; settings: oral, daily for 5 days, ConA-injected mice; for AST levels: control group A 9140; for ALT levels: control group A 24040
Method: Male C57Bl/6 mice (12 weeks old) were obtained from Harlan Laboratories (Jerusalem, Israel) and maintained in the Animal Core of the Hadassah-Hebrew University Medical School. Mice were kept at 11-12 weeks of age and maintained in the Animal Core of the Hadassah-Hebrew University Medical School. All mice were administered standard laboratory chow and water ad libitum and kept in a 12-hour light/dark cycle. All experiments were performed in accordance with the guidelines of the Hebrew University-Hadassah Institutional Committee for Care and Use of Laboratory Animals (IACUC protocol number: MD-16-14986-3). Four groups of mice (n=4) were studied. Mice in all groups were injected with Concanavalin A (Con A, […]). Mice in control group A were treated with PBS. Mice in group B were orally administered 6 mg of GC, per mouse daily for 5 days prior to ConA injection. […] Serum aspartate aminotransferase (AST) and alanine aminotransferase (ALT) levels were determined with an automatic analyzer on all mice in all groups.

Row | Compound | glucosylceramidase activity (glucosylceramidase) | markers of oxidative stress (glucosylceramidase) | subjective-functional scores and objective scores (VEP, ocular movements) (type 3 neuropathic GD; 5 individuals with type 3 neuropathic GD) | GCase activity in lymphocytes (type 3 neuropathic GD; type 3 neuropathic GD patients) | IFN-γ change (in words) [1] | serum IL-1a [1] [pg/mL] | serum IL-6 [1] [pg/mL] | clinical outcome of ambroxol treatment [2] | alpha-synuclein levels (alpha-synuclein) | AST levels [3] [IU] | ALT levels [3] [IU] | IFN-γ ([1]; control group A 643) [pg/mL]
1 | Nc1c(Br)cc(Br)cc1CN[C@H]1CC[C@H](O)CC1 [Ambroxol, trans-4-(2-Amino-3,5-dibrombenzylamino)-cyclohexanol] | increased | reduced | substantial clinical improvement | Increased | did not show any decrease | 131 | 9504 | disease stability | reduces | 8516 | 16455 | –
2 | B-glucosylceramide [GC] | – | – | – | – | – | 48 | 984 | – | – | 2939 | 4198 | 36
